Laboratory results as given in ChEMBL document CHEMBL1201862, “PubChem BioAssay data set” (2004).
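Growth conditions: 96-well plates. Treatment: test compound, 48 hours, 5 concentrations. Analysis: linear interpolation between bracketing concentrations; unreached endpoints set to highest concentration. GI50 = concentration required for 50% inhibition of growth.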 Active and inactive are the calls of the source. Rule as the data show it: active = GI50 up to about 1.1 µM and inactive = higher.

Experiments:
Test in all cases: growth of human tumour cells (NCI), 48 h
T47D = tested on: T47D
SNB-75 = tested on: SNB-75
Hs-578T = tested on: Hs-578T
SR = tested on: SR
OVCAR-8 = tested on: OVCAR-8
RPMI-8226 = tested on: RPMI-8226
PC-3 = tested on: PC-3
MDA-MB-231 = tested on: MDA-MB-231
SF-539 = tested on: SF-539
U-251 = tested on: U-251
NCI-H460 = tested on: NCI-H460
SF-268 = tested on: SF-268
UO-31 = tested on: UO-31
MDA-N = tested on: MDA-N
NCI-H226 = tested on: NCI-H226
TK-10 = tested on: TK-10
SK-MEL-2 = tested on: SK-MEL-2
MCF7 = tested on: MCF7
SN12C = tested on: SN12C
UACC-257 = tested on: UACC-257
NCI-H23 = tested on: NCI-H23
A498 = tested on: A498
SK-MEL-5 = tested on: SK-MEL-5
MOLT-4 = tested on: MOLT-4
MDA-MB-435 = tested on: MDA-MB-435
CCRF-CEM = tested on: CCRF-CEM
HOP-62 = tested on: HOP-62
OVCAR-5 = tested on: OVCAR-5
HCT-116 = tested on: HCT-116
Malme-3M = tested on: Malme-3M
RXF 393 = tested on: RXF 393
HCT-15 = tested on: HCT-15
HCC 2998 = tested on: HCC 2998
M14 = tested on: M14
LOX IMVI = tested on: LOX IMVI
SW-620 = tested on: SW-620
EKVX = tested on: EKVX
786-0 = tested on: 786-0
SF-295 = tested on: SF-295
OVCAR-3 = tested on: OVCAR-3
K562 = tested on: K562
OVCAR-4 = tested on: OVCAR-4
CAKI-1 = tested on: CAKI-1
A549 = tested on: A549
DU-145 = tested on: DU-145
HL-60 = tested on: HL-60
ACHN = tested on: ACHN
SNB-19 = tested on: SNB-19
COLO 205 = tested on: COLO 205
KM12 = tested on: KM12
HT-29 = tested on: HT-29
SK-MEL-28 = tested on: SK-MEL-28
UACC-62 = tested on: UACC-62
BT-549 = tested on: BT-549
SK-OV-3 = tested on: SK-OV-3
IGROV-1 = tested on: IGROV-1
NCI-H522 = tested on: NCI-H522
HOP-92 = tested on: HOP-92
NCI/ADR-RES = tested on: NCI/ADR-RES

CC(C)(C)OC[C@H](O)CC#N
GI50 (T47D): > 100 µM (inactive)
GI50 (SNB-75): > 100 µM (inactive)
GI50 (Hs-578T): > 100 µM (inactive)
GI50 (SR): > 100 µM (inactive)
GI50 (OVCAR-8): > 100 µM (inactive)
GI50 (RPMI-8226): > 100 µM (inactive)
GI50 (PC-3): > 100 µM (inactive)
GI50 (MDA-MB-231): > 100 µM (inactive)
GI50 (SF-539): > 100 µM (inactive)
GI50 (U-251): > 100 µM (inactive)
GI50 (NCI-H460): > 100 µM (inactive)
GI50 (SF-268): > 100 µM (inactive)
GI50 (UO-31): > 100 µM (inactive)
GI50 (MDA-N): > 100 µM (inactive)
GI50 (NCI-H226): > 100 µM (inactive)
GI50 (TK-10): > 100 µM (inactive)
GI50 (SK-MEL-2): > 100 µM (inactive)
GI50 (MCF7): > 100 µM (inactive)
GI50 (SN12C): > 100 µM (inactive)
GI50 (UACC-257): > 100 µM (inactive)
GI50 (NCI-H23): > 100 µM (inactive)
GI50 (A498): > 100 µM (inactive)
GI50 (SK-MEL-5): > 100 µM (inactive)
GI50 (MOLT-4): > 100 µM (inactive)
GI50 (MDA-MB-435): > 100 µM (inactive)
GI50 (CCRF-CEM): > 100 µM (inactive)
GI50 (HOP-62): > 100 µM (inactive)
GI50 (OVCAR-5): > 100 µM (inactive)
GI50 (HCT-116): > 100 µM (inactive)
GI50 (Malme-3M): > 100 µM (inactive)
GI50 (RXF 393): > 100 µM (inactive)
GI50 (HCT-15): > 100 µM
GI50 (HCC 2998): > 100 µM (inactive)
GI50 (M14): > 100 µM (inactive)
GI50 (LOX IMVI): > 100 µM (inactive)
GI50 (SW-620): > 100 µM (inactive)
GI50 (EKVX): > 100 µM (inactive)
GI50 (786-0): > 100 µM (inactive)
GI50 (SF-295): > 100 µM (inactive)
GI50 (OVCAR-3): > 100 µM (inactive)
GI50 (K562): > 100 µM (inactive)
GI50 (OVCAR-4): > 100 µM (inactive)
GI50 (CAKI-1): > 100 µM (inactive)
GI50 (A549): > 100 µM (inactive)
GI50 (DU-145): > 100 µM (inactive)
GI50 (HL-60): > 100 µM (inactive)
GI50 (ACHN): > 100 µM (inactive)
GI50 (SNB-19): > 100 µM (inactive)
GI50 (COLO 205): > 100 µM (inactive)
GI50 (KM12): > 100 µM (inactive)
GI50 (HT-29): > 100 µM (inactive)
GI50 (SK-MEL-28): > 100 µM (inactive)
GI50 (UACC-62): > 100 µM (inactive)
GI50 (BT-549): > 100 µM (inactive)
GI50 (SK-OV-3): > 100 µM (inactive)

COc1cccc(C(NC2=NCCC=N2)c2cc3c(cc2O)OCO3)c1O (centres undefined)
GI50 (T47D): 25.5 µM (inactive)
GI50 (SNB-75): 23.3 µM (inactive)
GI50 (Hs-578T): 25.4 µM (inactive)
GI50 (SR): 11.6 µM (inactive)
GI50 (OVCAR-8): 10.4 µM (inactive)
GI50 (RPMI-8226): 21.5 µM (inactive)
GI50 (IGROV-1): 29.4 µM (inactive)
GI50 (PC-3): 29.1 µM (inactive)
GI50 (MDA-MB-231): 23.6 µM (inactive)
GI50 (SF-539): 25.8 µM (inactive)
GI50 (U-251): 17.7 µM (inactive)
GI50 (NCI-H460): 29.8 µM (inactive)
GI50 (SF-268): 34.8 µM (inactive)
GI50 (UO-31): 35.6 µM (inactive)
GI50 (MDA-N): 27.2 µM (inactive)
GI50 (NCI-H226): 43.5 µM (inactive)
GI50 (TK-10): 76.9 µM (inactive)
GI50 (SK-MEL-2): 24.4 µM (inactive)
GI50 (MCF7): 18 µM (inactive)
GI50 (SN12C): 19.6 µM (inactive)
GI50 (UACC-257): 34.4 µM (inactive)
GI50 (NCI-H23): 32.1 µM (inactive)
GI50 (A498): 27.7 µM (inactive)
GI50 (SK-MEL-5): 38.8 µM (inactive)
GI50 (MOLT-4): 23.6 µM (inactive)
GI50 (MDA-MB-435): 29 µM (inactive)
GI50 (CCRF-CEM): 10.8 µM (inactive)
GI50 (HOP-62): 25.7 µM (inactive)
GI50 (OVCAR-5): 36.6 µM (inactive)
GI50 (HCT-116): 24.1 µM (inactive)
GI50 (Malme-3M): 38.1 µM (inactive)
GI50 (RXF 393): 23.8 µM (inactive)
GI50 (HCT-15): 14.1 µM
GI50 (HCC 2998): 19.9 µM (inactive)
GI50 (M14): 27.4 µM (inactive)
GI50 (NCI-H522): 15.8 µM (inactive)
GI50 (LOX IMVI): 19.5 µM (inactive)
GI50 (SW-620): 20.4 µM (inactive)
GI50 (EKVX): > 100 µM (inactive)
GI50 (786-0): 12.4 µM (inactive)
GI50 (SF-295): 42.2 µM (inactive)
GI50 (OVCAR-3): 22 µM (inactive)
GI50 (K562): 17.9 µM (inactive)
GI50 (CAKI-1): 49.1 µM (inactive)
GI50 (A549): 41.1 µM (inactive)
GI50 (DU-145): > 100 µM (inactive)
GI50 (HL-60): 8.93 µM (inactive)
GI50 (ACHN): 48 µM (inactive)
GI50 (SNB-19): 46.1 µM (inactive)
GI50 (COLO 205): 40.1 µM (inactive)
GI50 (KM12): 32.8 µM (inactive)
GI50 (HT-29): 38.5 µM (inactive)
GI50 (SK-MEL-28): 32.7 µM (inactive)
GI50 (UACC-62): 23.3 µM (inactive)
GI50 (BT-549): 16.7 µM (inactive)
GI50 (SK-OV-3): 94 µM (inactive)
GI50 (HOP-92): 23.7 µM (inactive)

O=C(CSC1=NCCN1)Nc1ccccc1
GI50 (T47D): 12.9 µM (inactive)
GI50 (SNB-75): 21.5 µM (inactive)
GI50 (Hs-578T): 28.1 µM (inactive)
GI50 (SR): 44.3 µM (inactive)
GI50 (OVCAR-8): 29.4 µM (inactive)
GI50 (RPMI-8226): 41.2 µM (inactive)
GI50 (IGROV-1): 33.4 µM (inactive)
GI50 (PC-3): 19.9 µM (inactive)
GI50 (MDA-MB-231): 20.6 µM (inactive)
GI50 (U-251): 18.3 µM (inactive)
GI50 (NCI/ADR-RES): 26.4 µM (inactive)
GI50 (NCI-H460): 31.1 µM (inactive)
GI50 (SF-268): 33.3 µM (inactive)
GI50 (UO-31): 27.4 µM (inactive)
GI50 (MDA-N): 17.7 µM (inactive)
GI50 (TK-10): 19.2 µM (inactive)
GI50 (SK-MEL-2): 17.8 µM (inactive)
GI50 (SN12C): 17.5 µM (inactive)
GI50 (UACC-257): 17.1 µM (inactive)
GI50 (NCI-H23): 37.6 µM (inactive)
GI50 (A498): 35 µM (inactive)
GI50 (MOLT-4): 52.1 µM (inactive)
GI50 (MDA-MB-435): 34.8 µM (inactive)
GI50 (CCRF-CEM): 67.9 µM (inactive)
GI50 (HOP-62): 48 µM (inactive)
GI50 (OVCAR-5): 29.3 µM (inactive)
GI50 (HCT-116): 23.8 µM (inactive)
GI50 (Malme-3M): 24.8 µM (inactive)
GI50 (RXF 393): 13.8 µM (inactive)
GI50 (HCT-15): 29.2 µM
GI50 (HCC 2998): 23.8 µM (inactive)
GI50 (M14): 32.9 µM (inactive)
GI50 (NCI-H522): 19 µM (inactive)
GI50 (LOX IMVI): 18 µM (inactive)
GI50 (SW-620): 25.8 µM (inactive)
GI50 (EKVX): 45.2 µM (inactive)
GI50 (786-0): 16.1 µM (inactive)
GI50 (SF-295): 29.4 µM (inactive)
GI50 (OVCAR-3): 20.7 µM (inactive)
GI50 (K562): 40.6 µM (inactive)
GI50 (OVCAR-4): 65.8 µM (inactive)
GI50 (CAKI-1): 73.8 µM (inactive)
GI50 (A549): > 100 µM (inactive)
GI50 (DU-145): 33.7 µM (inactive)
GI50 (ACHN): 22.4 µM (inactive)
GI50 (SNB-19): 69.3 µM (inactive)
GI50 (KM12): 48 µM (inactive)
GI50 (HT-29): 31.4 µM (inactive)
GI50 (SK-MEL-28): 26.3 µM (inactive)
GI50 (UACC-62): 22.1 µM (inactive)
GI50 (BT-549): 24.5 µM (inactive)
GI50 (HOP-92): 26.8 µM (inactive)
